Test results taken from patent publication US6780867B2, “Thienopyrimidines” (Merck Patent GmbH, priority 2000, dated 2004).
Structures can show the parent of a compound that is named as a salt.

| melting point [°C] | Structure (SMILES) |
| --- | --- |
| 136 to 137 | COc1ccc(CNc2nc(COCC(=O)O)nc3sc4c(c23)CCCC4)cc1Cl (as salt: salt) [Example 6, [4-(3-chloro-4-methoxybenzylamino)-5,6,7,8-tetrahydrobenzo[4,5]thieno-[2,3-d]pyrimidin-2-ylmethoxy]acetic acid] |
| 158 to 160 | CCOC(=O)CSCc1nc(NCc2ccc(OC)c(Cl)c2)c2c3c(sc2n1)CCCC3 [Example 5, ethyl [4-(3-chloro-4-methoxybenzylamino)-5,6,7,8-tetrahydrobenzo[4,5]thieno-[2,3-d]pyrimidin-2-ylmethylsulfanyl]acetate] |
